Reference: patent publication US10501464B2, “7-oxo-6-(sulfooxy)-1,6-diazabicyclo[3.2.1]octane-2-carboxamide containing compounds and their use in treating bacterial infections” (WOCKHARDT LIMITED, priority 2015, dated 2019)
Like-named read-outs stand apart in the source and are kept apart here.

Key:
Assay in all cases: Antibacterial activity, MIC by agar dilution (CLSI)
Type in all cases: cell-based
[1] = tested on: K. pneumoniae ATCC 700603; conditions: Klebsiella pneumoniae, ATCC700603, compound tested alone, read-out: MIC
Experimental: (§1) The biological activity of representative compounds according to the invention against various bacterial strains was investigated. In a typical study, overnight grown bacterial cultures were diluted appropriately and inoculated on the agar media containing doubling dilutions of the test compounds. Observations for growth or no growth was performed after 16-20 hours of incubation at 35±2° C. in the ambient air. The overall procedure was performed as per Clinical and Laboratory Standards Institute (CLSI) recommendations, (Clinical and Laboratory Standards Institute (CLSI), Performance Standards for Antimicrobial Susceptibility Testing, 20th Informational Supplement, M07-A9, Volume 32, No. 2, 2012). Molten Mueller Hinton Agar (BD, USA) containing serial dilutions of each antibacterial agent were poured on to the plates and allowed to solidify. Appropriate suspensions from the freshly grown cultures were prepared in normal saline so that about 10^4CFU/spot of the organism was delivered on to the drug containing agar plates using automated multipoint inoculator (Mast, UK). The plates were incubated in Biochemical oxygen demand (BOD) incubator at 37° C. for 18 hours and then examined for growth.
(§2) Method for the determination of MIC: The Minimum Inhibitory Concentration (MIC) determination for the combinations was carried out in Muller Hinton Agar (MHA) (BD, USA) according to Clinical and Laboratory Standards Institute (CLSI) recommendations, (Clinical and Laboratory Standards Institute (CLSI), Performance Standards for Antimicrobial Susceptibility Testing, 20th Informational Supplement, M 100-S20, Volume 30, No. 1, 2010). In short, the test strains were adjusted to deliver about 10^4CFU per spot with a multipoint inoculator (Applied Quality Services, UK). The plates were poured with MHA containing doubling concentration range of representative compounds according to present invention. The plates were inoculated and were incubated at 35° C. for 18 hour. […] The Table 2 depicts the antibacterial activity profile of compounds according to present invention against various multidrug resistant bacterial strains.

P. mirabilis S 137B = conditions: Proteus mirabilis, S137B, compound tested alone, read-out: MIC
Experimental: as §1, §2

E. coli M 138 = conditions: Escherichia coli, M138, E. coli M 138; compound tested alone; read-out: MIC
Experimental: as §1, §2

E. coli M 50 = conditions: compound tested alone
Experimental: as §1, §2

E. coli M 36 = conditions: compound tested alone
Experimental: as §1, §2

E. coli M 49 = conditions: Escherichia coli, M49, E. coli M 49; compound tested alone; read-out: MIC
Experimental: as §1, §2

E. coli 7 MP = conditions: compound tested alone
Experimental: as §1, §2

K. pneumoniae H 525 = conditions: Klebsiella pneumoniae, H525, K. pneumoniae H 525; compound tested alone; read-out: MIC
Experimental: as §1, §2

K. pneumoniae H 521 = conditions: Klebsiella pneumoniae, H521, K. pneumoniae H 521; compound tested alone; read-out: MIC
Experimental: as §1, §2

E. coli 13353 = conditions: compound tested alone
Experimental: as §1, §2

K. pneumoniae H 523 = conditions: Klebsiella pneumoniae, H523, K. pneumoniae H 523; compound tested alone; read-out: MIC
Experimental: as §1, §2

K. pneumoniae H 522 = conditions: Klebsiella pneumoniae, H522, K. pneumoniae H 522; compound tested alone; read-out: MIC
Experimental: as §1, §2

E. coli 13352 = conditions: compound tested alone
Experimental: as §1, §2

E. coli 13351 = conditions: compound tested alone
Experimental: as §1, §2

[2] = Escherichia coli, M50, E. coli M 50, read-out: MIC
[3] = Escherichia coli, M36, E. coli M 36, read-out: MIC
[4] = Escherichia coli, 7MP, read-out: MIC
[5] = Escherichia coli, 13353, E. coli 13353, read-out: MIC
[6] = Escherichia coli, 13352, E. coli 13352, read-out: MIC
[7] = Escherichia coli, 13351, E. coli 13351, read-out: MIC

SMILES | MIC [1] [µg/mL] | MIC (P. mirabilis S 137B) [µg/mL] | MIC (E. coli M 138) [µg/mL] | MIC (E. coli M 50; [2]) [µg/mL] | MIC (E. coli M 36; [3]) [µg/mL] | MIC (E. coli M 49) [µg/mL] | MIC (E. coli 7 MP; [4]) [µg/mL] | MIC (K. pneumoniae H 525) [µg/mL] | MIC (K. pneumoniae H 521) [µg/mL] | MIC (E. coli 13353; [5]) [µg/mL] | MIC (K. pneumoniae H 523) [µg/mL] | MIC (K. pneumoniae H 522) [µg/mL] | MIC (E. coli 13352; [6]) [µg/mL] | MIC (E. coli 13351; [7]) [µg/mL] | MIC (E. coli M 50; E. coli M 50) [µg/mL] | MIC (E. coli M 36; E. coli M 36) [µg/mL] | MIC (E. coli 7 MP) [µg/mL] | MIC (E. coli 13353; E. coli 13353) [µg/mL] | MIC (E. coli 13352; E. coli 13352) [µg/mL] | MIC (E. coli 13351; E. coli 13351) [µg/mL]
O=C(NOC[C@@H]1C[C@H](n2cncn2)CN1)[C@@H]1CC[C@@H]2CN1C(=O)N2OS(=O)(=O)O [Example 9] | > 32 | > 32 | 1 | 1 | 1 | 4 | 2 | 2 | 2 | 1 | 2 | 2 | 2 | 2 |  |  |  |  |  | 
O=C(NNC(=O)[C@@H]1CC[C@@H]2CN1C(=O)N2OS(=O)(=O)O)[C@@H]1C[C@H](n2ncnn2)CN1 [Example 23] | > 32 | > 32 | 2 | 1 | 1 | 8 | 4 | 4 | 4 | 1 | 4 | 4 | 2 | 2 |  |  |  |  |  | 
O=C(NNC(=O)[C@@H]1CC[C@@H]2CN1C(=O)N2OS(=O)(=O)O)[C@@H]1C[C@H](n2cnnn2)CN1 [Example 24] | > 32 | > 32 | 4 | 4 | 4 | 16 | 8 | 4 | 4 | 4 | 4 | 4 | 2 | 2 |  |  |  |  |  | 
O=C(NNC(=O)[C@@H]1CC[C@@H]2CN1C(=O)N2OS(=O)(=O)O)[C@@H]1C[C@H](n2nccn2)CN1 [Example 25] | > 32 | > 32 | 2 | 1 | 1 | 8 | 2 | 8 | 4 | 0.5 | 4 | 4 | 1 | 1 |  |  |  |  |  | 
O=C(NNC(=O)[C@@H]1CC[C@@H]2CN1C(=O)N2OS(=O)(=O)O)[C@@H]1C[C@H](n2ccnn2)CN1 [Example 26] | > 32 | > 32 | 4 | 4 | 4 | > 32 | 8 | 16 | 8 | 2 | 16 | 8 | 2 | 2 |  |  |  |  |  | 
O=C(NNC(=O)[C@@H]1CC[C@@H]2CN1C(=O)N2OS(=O)(=O)O)C1C[C@H](n2cccn2)CN1 (stereo partly shown) [Example 27] | > 32 | > 32 | 2 | 1 | 1 | > 32 | 8 | 4 | 4 | 1 | 4 | 4 | 1 | 1 |  |  |  |  |  | 
O=C(NNC(=O)[C@@H]1CC[C@@H]2CN1C(=O)N2OS(=O)(=O)O)C1C[C@H](n2ccnc2)CN1 (stereo partly shown) [Example 28] | > 32 | > 32 | 2 |  |  | 8 |  | 4 | 4 |  | 4 | 4 |  |  | 2 | 1 | 4 | 1 | 1 | 1
O=C(NNC(=O)[C@@H]1CC[C@@H]2CN1C(=O)N2OS(=O)(=O)O)[C@@H]1C[C@H](n2cncn2)CN1 [Example 29] | > 32 | > 32 | 1 | 0.5 | 0.5 | 4 | 2 | 2 | 2 | 0.5 | 2 | 2 | 1 | 1 |  |  |  |  |  | 
